Laboratory results as given in patent US12582116B2, “Agricultural formulations” (Dow Global Technologies LLC, priority 2020, dated 2026).

Assays:
[1] = Mutual solubility of Formula 1 solvent and water (Example 1); type: physicochemical; details: for solubility in water: solvent dissolved in water
Protocol: The solubility of Formula 1 Solvent A in water is measured to be 0.67 weight percent. The solubility of water in Formula 1 Solvent A is measured to be 1.44 weight percent.

[2] = Solubility of agricultural active ingredients in solvent by visual observation, Formula 1 Solvent A vs aromatic hydrocarbon (Example 2)
Protocol: The aromatic hydrocarbon solvent used is Aromatic 150 from Exxon Mobil Corporation (“Aromatic Hydrocarbon”). The agricultural active ingredients used are bifenthrin, tebuconazole, nitrapyrin, and dicamba acid.
(§1) The solubilities are determined by visual observation using the following method. Four milliliter vials are charged with agricultural active ingredient (10 to 50 wt %) and the specified solvent (90 to 50 wt %). The vials are capped and taped to seal with electric tape. The vials are secured in a plastic container and shaken on a laboratory shaker for 12 hours at ambient laboratory temperature and humidity. After 12 hours, each sample set is evaluated for solubility of the agricultural active ingredient solid. Complete solubilization of the agricultural active ingredient is determined to be achieved if a homogeneous clear solution is observed. The formulations made with Formula 1 Solvent A represent some embodiments of agricultural formulations of the present invention.

[3] = Solubility of agricultural active ingredients in solvent by visual observation, Formula 1 Solvent A vs N,N-dialkyl fatty amide (Example 3)
Protocol: The N,N-dialkyl fatty amide solvent used is HALLCOMID™ M-10’, which is a N,N-dimethyldecanamide from Stepan Company (“N,N-dialkyl Fatty Amide”). The agricultural active ingredients used are bifenthrin, tebuconazole, nitrapyrin, and dicamba acid.
as §1

[4] = in Aromatic Hydrocarbon (Aromatic 150, Exxon Mobil), shaken 12 hours at ambient laboratory temperature, visual observation, Table 2
[5] = in Formula 1 Solvent A (ethyl 2-furoate, Ethyl 408), shaken 12 hours at ambient laboratory temperature, visual observation, Table 2
[6] = in Formula 1 Solvent A (ethyl 2-furoate, Ethyl 408), shaken 12 hours at ambient laboratory temperature, visual observation, Table 3
[7] = in N,N-dialkyl Fatty Amide (HALLCOMID M-10, N,N-dimethyldecanamide), shaken 12 hours at ambient laboratory temperature, visual observation, Table 3

Compound | solubility in water [1] | solubility of water in Formula 1 Solvent A ([1]; water dissolved in the solvent) | Agricultural Active Ingredient Solubility [2, 4] | Agricultural Active Ingredient Solubility [2, 5] | Agricultural Active Ingredient Solubility [3, 6] | Agricultural Active Ingredient Solubility [3, 7] | Agricultural Active Ingredient Solubility [2] | Agricultural Active Ingredient Solubility [3]
CCOC(=O)c1ccco1 [Formula 1 Solvent A, ethyl 2-furoate] | 0.67 weight percent | 1.44 weight percent |  |  |  |  |  | 
Cc1c(COC(=O)[C@@H]2[C@H](/C=C(\Cl)C(F)(F)F)C2(C)C)cccc1-c1ccccc1 (racemic) [Bifenthrin, bifenthrin] |  |  | 40 wt % | 30 wt % | 30 wt % | 30 wt % |  | 
5-methyl-2-furoate | 0.67 weight percent |  |  |  |  |  |  | 
COc1c(Cl)ccc(Cl)c1C(=O)O [Dicamba Acid, dicamba acid] |  |  | <10 wt % | 40 wt % | 40 wt % | <10 wt % |  | 
Clc1cccc(C(Cl)(Cl)Cl)n1 [Nitrapyrin, nitrapyrin] |  |  |  |  |  |  | >50 wt % | >50 wt %
CC(C)(C)C(O)(CCc1ccc(Cl)cc1)Cn1cncn1 (centres unmarked) [Tebuconazole, tebuconazole] |  |  | <10 wt % |  | 20 wt % | 30 wt % | 20 wt % | 
